Assay results reported in PMC8699537, “In Vitro Anti-SARS-CoV-2 Activity of Selected Metal Compounds and Potential Molecular Basis for Their Actions Based on Computational Study” (Biomolecules, 2021).
Where two headings read alike, the source gives them in different places.

Tests used:
Huh-7 cells = test system: Huh-7 cells; set-up: method as in PMID 32442105; conditions: cited from earlier work
Calu-3 cells = test: Cytotoxicity, CellTiter-Glo 2.0 Luminescent Cell Viability Assay; conditions: read-out: CC50 (half-maximal cytotoxic concentration), 48h exposure
SARS-CoV-2 [1] = format: cell-based; conditions: for IC50 (half-maximal inhibitory concentration), SYRA: DYRA supernatants on VERO E6 cells, 24 h
SARS-CoV-2 [2] = test: microbe, parasite or virus in culture; format: cell-based; conditions: for IC50 (half-maximal inhibitory concentration), DYRA / IC50: Calu-3 cells, SARS-CoV-2 lineage B.1, 48h, DYRA; for IC50: read-out: IC50 (half-maximal inhibitory concentration), DYRA
SARS-CoV-2 [3] = test system: SARS-CoV-2; set-up: method as in PMID 32442105; conditions: Huh-7 cells; viral RNA in cell supernatant; cited from earlier work
in vitro = conditions: human

Compound | CC50 (Calu-3 cells) [µM] | IC50 (half-maximal inhibitory concentration), SYRA (SARS-CoV-2 [1]) | IC50 (half-maximal inhibitory concentration), DYRA (SARS-CoV-2 [2]) | further results
CC(=O)OC[C@H]1O[C@@H]([S-])[C@H](OC(C)=O)[C@@H](OC(C)=O)[C@@H]1OC(C)=O.CCP(CC)CC.[Au+] [Auranofin] | 3.7 | Not active ^3 | Not active ^3 | CC50 (Huh-7 cells): 5.7 µM; IC50 (SARS-CoV-2 [3]): 1.4 µM
CCOC(=O)CN(C)C1=[S+][Au-]([Br])([Br])[S]1 [AuL12] | 19 | Not active ^3 | Not active ^3 | 
Cl.[Cl-].[Cl-].[Cl-].[Ru+3].c1c[nH]cn1.c1c[nH]cn1 [NAMI-A] | > 200 |  |  | 
[Cl-].[Cl-].[Ti+4].c1cc[cH-]c1.c1cc[cH-]c1 [TiCp2Cl2, Titanocene dichloride] | > 200 |  |  | IC50 (SARS-CoV-2 [1]; read-out: IC50 (half-maximal inhibitory concentration), SYRA): 47.3 µM
Cl.[Cl-].[Cl-].[Cl-].[Ru+3].c1ccc2[nH]ncc2c1.c1ccc2[nH]ncc2c1.c1ccc2[nH]ncc2c1 [KP1019] | 60 |  |  | IC50 (SARS-CoV-2 [2]): 8.8 ± 1.5 µM
CC[P](CC)(CC)[Au][I] [Au(Pet3)I] | 12 | Not active ^3 | Not active ^3 | 
[Cl][Sb]([Cl])[Cl] [SbCl3, antimony trichloride] | 200 |  |  | IC50 (SARS-CoV-2 [2]): 31.1 ± 15.3 µM
CS(C)=O.[Cl-].[Cl-].[Cl-].[Cl-].[Ru+3].c1c[nH+]c[nH]1.c1c[nH]cn1 [NAMI-A] |  | Not active ^3 | Not active ^3 | 
CCC(CC)COC(=O)[C@H](C)N[P@](=O)(OC[C@H]1O[C@@](C#N)(c2ccc3c(N)ncnn23)[C@H](O)[C@@H]1O)Oc1ccccc1 [Remdesivir] |  |  |  | CC50 (in vitro): 97 µM; Selectivity Index (SARS-CoV-2 [2]; CC50/IC50 ratio, IC50 from DYRA): 485; IC50 (SARS-CoV-2 [2]; Severe acute respiratory syndrome coronavirus 2): 0.2 ± 0.05 µM
